The NIST ThermoML archive (doi:10.1021/je5001457)

Settings: for kinematic viscosity: Liquid

F/C=C/C(F)(F)F [trans-1,3,3,3-tetrafluoropropene]
surface light scattering
Settings	kinematic viscosity [m2/s]	surface tension liquid-gas [mN/m]
295.23 K	1.78e-07	8.88
303.19 K	1.61e-07	7.91
313.21 K	1.43e-07	6.66
323.19 K	1.32e-07	5.48
333 K	1.19e-07	4.36
343.05 K	1.13e-07	3.3
353 K	1.05e-07	2.26
363.12 K	9.24e-08	1.35
373.14 K	8.17e-08	0.54

FCC(F)(F)F [1,1,1,2-tetrafluoroethane]
surface light scattering
Settings	kinematic viscosity [m2/s]	surface tension liquid-gas [mN/m]
302.99 K	1.55e-07	7.45
312.86 K	1.41e-07	6.19
322.92 K	1.28e-07	4.95
332.92 K	1.17e-07	3.79
342.9 K	1.07e-07	2.68
352.89 K	9.79e-08	1.65
363.27 K	8.56e-08	0.73
368.26 K	7.9e-08	0.34

C=C(F)C(F)(F)F [2,3,3,3-tetrafluoro-1-propene]
light scattering
Settings	kinematic viscosity [m2/s]	surface tension liquid-gas [mN/m]
293.15 K	1.44e-07	6.82
303.09 K	1.32e-07	5.71
313.2 K	1.22e-07	4.6
323.19 K	1.13e-07	3.55
333.14 K	1.02e-07	2.55
343.11 K	8.99e-08	1.64
353.08 K	8.2e-08	0.81
358.05 K	7.7e-08	0.46
363.05 K	7e-08	0.15
365.05 K	6.24e-08	–
